Patent US20100022457A1 (Bristol-Myers Squibb Company, priority 2006, published 2010)
Read-outs that look alike come from different tables or passages of the source. Where a SMILES comes first, the peptide text is derived from it. [ ]: non-standard residue; d: D form. Ala(6-(2-MePh)pyridin-3-yl) = Cc1ccccc1-c1ccc(C[C@H](N)C(=O)O)cn1; Bip(2'-Et-4'-OMe) = CCc1cc(OC)ccc1-c1ccc(C[C@H](N)C(=O)O)cc1; αMePhe(2-F) = C[C@](N)(Cc1ccccc1F)C(=O)O; Aib = CC(C)(N)C(=O)O

Experiments:
[1] = Solubility of protamine/Compound of SEQ ID NO:9 adduct and in protamine solution; assay type: physicochemical
Excerpt: Thus, the administration of the protamine/Compound of SEQ ID NO:9 adduct may need a suitable suspending agent; or it maybe injected as dry powder.
Therefore, suspension of the compound of SEQ ID NO:9 in the presence of protamine could still provide extended release effect without using pre-formed protamine/SEQ ID NO:9 adduct.

[2] = Dog pharmacokinetic study (intravenous and subcutaneous, 67 μg/kg); assay type: in vivo; settings: for half-life: read-out: t1/2 (converted)
Experimental: The pharmacokinetic parameters of the compound of SEQ ID NO:9 were determined in male beagle dogs (n=4, 14±1 kg). Following an overnight fast, each animal received the compound of SEQ ID NO:9 either as an intravenous bolus via femoral vein (67 μg/kg) or by subcutaneous injection given at near the shoulder blades (67 μg/kg). Each animal received both intravenous and subcutaneous doses with a one-week washout between doses following a crossover design. […] Serial blood samples were collected in EDTA-containing microcentrifuge tubes at predose, 0.083, 0.25, 0.5, 0.75, 1, 2, 4, 6, 8, 24, and 30 hours post-dose after intravenous administration; at predose, 0.25, 0.5, 0.75, 1, 2, 4, 6, 8, 24, and 30 hours post-dose after subcutaneous administration. Approximately 0.3 mL of blood was collected at each time point. Blood samples were immediately centrifuged at 4° C. The obtained plasma was frozen with dry ice and stored at −20° C. Plasma drug levels were determined using the LC-MS/MS assay described above.
Plasma samples from in vivo dog study were prepared for analysis by precipitating plasma proteins with two volumes of acetonitrile containing an internal standard. The samples were vortex mixed and removed the precipitated proteins by centrifugation. The resulting supernatants were transferred to a 96-well plate and 10 μL were injected for analysis. Samples were prepared with the Packard Multiprobe II and Quadra 96 Liquid Handling System.
The HPLC system consisted of two Shimadzu LC10AD pumps (Columbia, Md.), a CTC PAL autosampler (Leap Technologies, Switzerland). The column used was a YMC Hydrosphere C18 (2.0×50 mm, 3 μm) (YMC, Inc., Milford, Mass.). The column temperature was maintained at 50° C. and the flow rate was 0.3 mL/minute. The mobile phase A consisted of 10 mM ammonium formate and 0.1% formic acid in water and mobile phase B consisted of 0.1% formic acid in acetonitrile. The initial mobile phase composition was 5% B, and remained at 5% B for one minute to equilibrate the column. The composition was ramped to 95% B over two minutes and held there for one additional minute. The mobile phase was then returned to initial conditions in one minute. Total analysis time was five minutes. A switching valve was used. The eluents between 0-1 minute were diverted to the waste.
The HPLC was interfaced to a Sciex API 4000 mass spectrometer, (Applied Biosystems, Foster City, Calif.) and was equipped with a TurboIonspray ionization source. Ultra high purity nitrogen was used as the nebulizing and turbo gas. The temperature of turbo gas was set at 300° C. and the interface heater was set at 60° C. Data acquisition utilized selected reaction monitoring (SRM). Ions representing the (M+2H)^2+ species for the compound of SEQ ID NO:9, and (M+2H)^2+ for BMS-501143 (IS) were selected in Q1 and were collisionally dissociated with high purity nitrogen at a pressure of 3.5×10^−3 torr to form specific product ions which were subsequently monitored by Q3.
The standard curve concentrations, ranging from 1 to 1000 nM and from 4 to 5000 nM, were used for the in vivo samples obtained from low and high doses, respectively. The curves were fitted with a quadratic regression weighted by reciprocal […]. Standards were analyzed in duplicate. Quality control (QC) samples, prepared in blank matrix at the same concentrations as the standard were also analyzed in each analytical set. For the compound of SEQ ID NO:9, the calculated concentrations of more than 80% of the QCs were within 20% of nominal concentration, indicating acceptable assay performance.
The compound of SEQ ID NO:9 plasma concentration vs. time data were analyzed by noncompartmental methods using the […]™ software program. The Cmax and Tmax values were recorded directly from experimental observations. The AUC0-n and AUCtot values were calculated using a combination of linear and log trapezoidal summations. […]

[3] = Solubility of the compound of SEQ ID NO:9 in the presence of Zn(II) / Zn adduct; assay type: physicochemical; settings: pH 6.8, 50 mM phosphate buffer
Experimental: The concentration of the compound of SEQ ID NO:9 was analyzed by a Waters HPLC system (Waters 2690 Separations Module and Waters 996 Photodiode Array Detector). A gradient method was used where solvent A is 0.05% trifluoroacetic acid (TFA, Sigma) in water, and solvent B is 0.05% TFA in acetone nitrile (ACN, Sigma). Light at a wavelength of 220 nm was used to detect the absorption of the compound of SEQ ID NO:9.
Once the Zn/Compound of SEQ ID NO:9 adduct was formed, formulation development studies were conducted in order to evaluate the solubility of the compound of SEQ ID NO:9 in the presence of Zn(II). An excess amount of the compound of SEQ ID NO:9 was suspended in pH 6.8, 50 mM phosphate buffer. The suspension was then placed on an orbital shaker (Model, 100 RPM) at ambient temperature for 12 hours. The suspension was then centrifuged (Model, speed) and the saturated the clear supernatant of the compound of SEQ ID NO:9 was collected into 10 ml centrifuge tubes. A predetermined amount of zinc acetate solution (50 mM, pH 6.8 phosphate buffer) was added into the saturated solution and then precipitated. The concentration of the compound of SEQ ID NO:9 in solution was obtained by centrifuging the suspension and analyzing the clear supernatants by HPLC. […]

[4] = male, beagle, plasma, 67 ug/kg, dog, intravenous 67 μg/kg, propylene glycol:phosphate buffer (50:50)
[5] = male, beagle, plasma, sc, 67 ug/kg, dog, subcutaneous 67 μg/kg, propylene glycol:phosphate buffer (50:50)

solubility ([1]; MeOH): > 50000 µg/mL
Exposure in dogs (sc@67 μg/kg) ([2]; Table I, vehicle 0.2 M Tris buffer (pH 8.0)): 0.452 µM·h
Exposure in dogs (sc@67 μg/kg) ([2]; Table II, vehicle propylene glycol/pH 7.4 phosphate buffer (1:1)): 1.23 µM·h
Vss as % of extracellular fluid ([2]; dog, extracellular fluid 0.14 L/kg): 71 % of extracellular fluid
systemic clearance as % of liver blood flow ([2]; dog, liver blood flow 31 mL/min/kg): 3.2 % of liver blood flow
Vss as times of vascular fluid ([2]; dog, vascular fluid 0.05 L/kg): 2 times of vascular fluid
AUC [2, 4]: 1.27 ± 0.299 µM·h
MRT [2, 4]: 3 ± 1 h
clearance ([2]; male, beagle, plasma, 67 ug/kg, dog, intravenous 67 μg/kg, propylene glycol:phosphate buffer (50:50), read-out: CLp): 0.6 ± 0.1 mL/min/kg
Vd ([2]; male, beagle, plasma, 67 ug/kg, dog, intravenous 67 μg/kg, propylene glycol:phosphate buffer (50:50), read-out: VSS): 0.1 ± 0.03 L/kg
half-life [2, 4]: 5.1 ± 0.5 h
AUC [2, 5]: 1.22 ± 0.276 µM·h
MRT [2, 5]: 12.5 ± 2.4 h
Tmax [2, 5]: 5 ± 1 h
half-life [2, 5]: 6.9 ± 1.3 h
Cmax ([2]; male, beagle, plasma, sc, 67 ug/kg, dog, subcutaneous 67 μg/kg, text of b538, read-out: maximum plasma concentration (Cmax)): 90 ± 29 nM
clearance ([2]; male, beagle, whole blood, 67 ug/kg, dog, intravenous 67 μg/kg, propylene glycol:phosphate buffer (50:50), read-out: CLB (systemic clearance)): 0.9 ± 0.2 mL/min/kg
solubility at 12 h ([3]; read-out: concentration of saturated solution (solubility)): 17 µg/mL
SMILES: CCc1cc(OC)ccc1-c1ccc(C[C@H](NC(=O)[C@H](CC(=O)O)NC(=O)[C@H](CO)NC(=O)[C@@H](NC(=O)[C@](C)(Cc2ccccc2F)NC(=O)[C@@H](NC(=O)CNC(=O)[C@H](CCC(=O)O)NC(=O)C(C)(C)NC(=O)[C@@H](N)Cc2c[nH]cn2)[C@@H](C)O)[C@@H](C)O)C(=O)N[C@@H](Cc2ccc(-c3ccccc3C)nc2)C(N)=O)cc1 [SEQ ID NO: 9] (H-H[Aib]EGT[αMePhe(2-F)]TSD[Bip(2'-Et-4'-OMe)][Ala(6-(2-MePh)pyridin-3-yl)]-NH2)
solubility as a function of protamine in the solution ([1]; pH 6.8, 50 mM PB buffer): decreases with increase of protamine in the solution
apparent solubility with addition of Zn (II) [3]: continued to decrease until below the detection limit of HPLC
